Results taken from patent US8846737B2, “Compound” (Sterix Limited, priority 2009, dated 2014).

Assays:
rats = conditions: cited from earlier work
steroid sulphatase = target: T1, steroid sulphatase (Homo sapiens, UniProt P08842); conditions: compared with EMATE; cited from earlier work
T1 sequence (P08842 22-583): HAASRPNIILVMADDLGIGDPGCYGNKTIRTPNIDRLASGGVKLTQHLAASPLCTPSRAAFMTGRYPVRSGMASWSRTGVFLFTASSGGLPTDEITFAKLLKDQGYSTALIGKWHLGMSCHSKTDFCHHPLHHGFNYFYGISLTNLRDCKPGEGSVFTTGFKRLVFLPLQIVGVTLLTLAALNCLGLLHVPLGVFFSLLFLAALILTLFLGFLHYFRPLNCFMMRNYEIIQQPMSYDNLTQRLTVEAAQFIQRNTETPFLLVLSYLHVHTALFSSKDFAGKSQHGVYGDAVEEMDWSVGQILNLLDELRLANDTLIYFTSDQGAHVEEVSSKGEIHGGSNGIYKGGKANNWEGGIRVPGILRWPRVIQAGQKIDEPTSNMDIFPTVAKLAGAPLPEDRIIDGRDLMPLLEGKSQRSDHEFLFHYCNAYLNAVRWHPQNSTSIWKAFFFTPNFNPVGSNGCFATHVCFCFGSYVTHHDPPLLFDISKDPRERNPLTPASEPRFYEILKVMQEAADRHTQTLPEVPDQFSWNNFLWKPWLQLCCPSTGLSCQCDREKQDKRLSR

Aromatase = target: T2, Aromatase (Homo sapiens, UniProt P11511); assay: Aromatase activity in JEG3 cells (Protocol 6); type: cell-based; conditions: intact JEG3 cells, [1β-3H]androstenedione, 30 min
T2 construct: host or cells: JEG3 choriocarcinoma cells, intact monolayers
T2 sequence (P11511 1-503): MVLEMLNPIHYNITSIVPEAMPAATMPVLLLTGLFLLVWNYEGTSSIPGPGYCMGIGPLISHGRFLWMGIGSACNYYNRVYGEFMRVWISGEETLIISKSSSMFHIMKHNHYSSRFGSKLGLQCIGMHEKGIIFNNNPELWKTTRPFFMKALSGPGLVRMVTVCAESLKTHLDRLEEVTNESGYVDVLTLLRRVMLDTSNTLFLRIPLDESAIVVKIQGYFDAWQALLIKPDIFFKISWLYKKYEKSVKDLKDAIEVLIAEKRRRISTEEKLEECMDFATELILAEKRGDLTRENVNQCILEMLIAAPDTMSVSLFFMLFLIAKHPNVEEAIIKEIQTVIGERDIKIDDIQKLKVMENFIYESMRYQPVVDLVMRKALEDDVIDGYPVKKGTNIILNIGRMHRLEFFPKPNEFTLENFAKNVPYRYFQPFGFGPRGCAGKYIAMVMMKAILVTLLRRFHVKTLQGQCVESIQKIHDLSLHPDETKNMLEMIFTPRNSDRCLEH
Procedure: Assay for Determining Aromatase Activity Using JEG3 Cells
Aromatase activity is measured in JEG3 choriocarcinoma cells, obtained from the ATCC. […] During the aromatase reaction, ^3H2O is liberated which can be quantified using a liquid scintillation spectrometer. […] The number of cell nuclei per flask is determined using a Coulter Counter after treating the cell monolayers with Zaponin.
Aromatase inhibition was measured in accordance with Protocol 6.

Steroid sulphatase (STS) = target: T3, Steroid sulphatase (STS) (Homo sapiens, UniProt P08842); assay: Inhibition of steroid sulphatase activity in JEG3 cells (Protocol 1); type: cell-based; conditions: intact JEG3 cells, [6,7-3H]oestrone-3-sulphate, 3-4 hours
T3 construct: host or cells: JEG3 choriocarcinoma cells, intact monolayers
T3 sequence (P08842 22-583): T1 sequence (P08842 22-583)
Procedure: Assay for Determining STS Activity Using Cancer Cells
Inhibition of Steroid Sulphatase Activity in JEG3 Cells
Steroid sulphatase activity is measured in vitro using intact JEG3 choriocarcinoma cells.
Cells are maintained in Minimal Essential Medium (MEM) containing 20 mM HEPES, 5% foetal bovine serum, 2 mM glutamine, non-essential amino acids and 0.075% sodium bicarbonate. Up to 30 replicate 25 cm^2 tissue culture flasks are seeded with approximately 1×10^5 cells/flask using the above medium Cells are grown to 80% confluency and the medium is changed every third day.
Intact monolayers of JEG3 cells in triplicate 25 cm^2 tissue culture flasks are washed with Earle's Balanced Salt Solution (EBSS) and incubated for 3-4 hours at 37° C. with 5 pmol (7×10^5 dpm) [6, 7-3H]oestrone-3-sulphate (specific activity 60 Ci/mmol) in serum-free MEM (2.5 ml) together with oestrone-3-sulphamate (11 concentrations: 0; 1fM; 0.01 pM; 0.1 pM, 1 pM; 0.01 nM; 0.1 nM; 0.01 mM; 0.1 mM; 1 mM). After incubation each flask is cooled and the medium (1 ml) is pipetted into separate tubes containing [14C]oestrone (7×10^3 dpm) (specific activity 97 Ci/mmol). The mixture is shaken thoroughly for 30 seconds with toluene (5 ml) Experiments have shown that >90% [14C]oestrone and <0 1% [3H]oestrone-3-sulphate is removed from the aqueous phase by this treatment A portion (2 ml) of the organic phase is removed, evaporated and the 3H and 14C content of the residue determined by scintillation spectrometry The mass of oestrone-3-sulphate hydrolysed was calculated from the 3H counts obtained (corrected for the volumes of the medium and organic phase used, and for recovery of [14C] oestrone added) and the specific activity of the substrate Each batch of experiments includes incubations of microsomes prepared from a sulphatase-positive human placenta (positive control) and flasks without cells (to assess apparent non-enzymatic hydrolysis of the substrate). The number of cell nuclei per flask is determined using a Coulter Counter after treating the cell monolayers with Zaponin One flask in each batch is used to assess cell membrane status and viability using the Trypan Blue exclusion method (Phillips, H J. (1973) In: Tissue culture and applications, [eds: Kruse, D. F. & Patterson, M. K]; pp 406-408; Academic Press, New York)
Results for steroid sulphatase activity are expressed as the mean±1S.D. of the total product (oestrone+oestradiol) formed during the incubation period (3-4 hours) calculated for […] and, for values showing statistical significance, as a percentage reduction (inhibition) over incubations containing no oestrone-3-sulphamate. Unpaired Student's t-test was used to test the statistical significance of results
Sterioid sulphatase inhibition was measured in accordance with Protocol 1

E1-STS = target: T4, E1-STS (Homo sapiens, UniProt P08842); conditions: intact MCF-7 cells, at 0.1 nM; cited from earlier work
T4 construct: host or cells: intact MCF-7 cells (endogenous enzyme)
T4 sequence (P08842 22-583): T1 sequence (P08842 22-583)

IC50 (Aromatase) [nM] | IC50 (Steroid sulphatase (STS)) [nM] | Structure (SMILES) | other results
40.7 ± 4.5 | 292 ± 80 | COc1ccc(Cc2cc(N(Cc3ccc(OS(N)(=O)=O)cc3)n3cnnc3)ccc2C#N)cc1 [Compound 45] | 
5.6 ± 0.1 | 14 ± 0.87 | N#Cc1ccc(N(Cc2c(F)cc(OS(N)(=O)=O)cc2F)n2cnnc2)cc1-c1ccc(F)cc1 [Compound 47] | 
36 ± 1.7 | 198 ± 37 | N#Cc1ccc(N(Cc2ccc(OS(N)(=O)=O)cc2)n2cnnc2)cc1-c1ccncc1 [Compound 51] | 
12.5 ± 2.3 | 62 ± 13 | N#Cc1ccc(N(Cc2ccc(OS(N)(=O)=O)cc2)n2cnnc2)cc1Oc1ccccc1 [Compound 57] | 
< 0.1 | 0.12 ± 0.02 | N#Cc1ccc(N(Cc2c(F)cc(OS(N)(=O)=O)cc2F)n2cnnc2)cc1-c1ccccc1 [PMW04153, 4-(((6-Cyanobiphenyl-3-yl)(4H-1,2,4-triazol-4-yl)amino)methyl)-3,5-difluorophenyl sulfamate] | 

The next lines start with the compound.

Structure (SMILES) | IC50 (Aromatase) [nM] | IC50 (Steroid sulphatase (STS)) [nM] | other results
COc1cc2c(cc1OS(N)(=O)=O)CC[C@@H]1[C@@H]2CC[C@]2(C)C(=O)CC[C@@H]12 [2-methoxyoestrone-3-O-sulphamate] |  |  | oestrogenicity (rats; rat, in vivo): devoid of oestrogenicity; potency as steroid sulphatase inhibitor (steroid sulphatase): equipotent with EMATE
N#Cc1ccc(N(Cc2ccc(OS(N)(=O)=O)cc2)n2cnnc2)cc1N1CCCCC1 [Compound 17] | 3.4 ± 0.2 | 43 ± 6 | 
N#Cc1ccc(N(Cc2ccc(OS(N)(=O)=O)cc2)n2cnnc2)cc1N1CCCCCC1 [Compound 19] | 3.2 ± 0.1 | 181 ± 8 | 
CN1CCN(c2cc(N(Cc3ccc(OS(N)(=O)=O)cc3)n3cnnc3)ccc2C#N)CC1 [Compound 23] | 89 ± 10.2 | 2800 ± 985 | 
N#Cc1ccc(N(CCC(=O)c2ccc(OS(N)(=O)=O)cc2)n2cnnc2)cc1-c1ccccc1 [Compound 29] | < 0.1 | 1150 ± 50 | 
N#Cc1ccc(N(Cc2ccc(OS(N)(=O)=O)cc2F)n2cnnc2)cc1-c1ccccc1 [Compound 31] | 1.43 ± 0.55 | 0.15 ± 0.03 | 
N#Cc1ccc(N(Cc2ccc(OS(N)(=O)=O)cc2)n2ccnc2)cc1-c1ccccc1 [Compound 32] | < 0.1 | 9.7 ± 4.2 | 
N#Cc1ccc(N(Cc2ccc(OS(N)(=O)=O)c(F)c2F)n2cnnc2)cc1-c1ccccc1 [Compound 34] | 0.8 ± 0.3 | 2.8 ± 0.9 | 
COc1ccc(-c2cc(N(Cc3c(F)cc(OS(N)(=O)=O)cc3F)n3cnnc3)ccc2C#N)cc1 [Compound 36] | < 0.1 | 0.1 | 
N#Cc1ccc(N(Cc2ccc(OS(N)(=O)=O)cc2)n2cnnc2)cc1CN1CCCC1 [Compound 41] | 97 ± 2.7 | 4360 ± 554 | 
CC12CCC3c4ccc(OS(N)(=O)=O)cc4CCC3C1CCC2=O (centres unmarked) [EMATE, oestrone-3-sulphamate] |  |  | inhibition of E1-STS activity (E1-STS): more than 99%; oral uterotrophic activity relative to estradiol (rats; rats, oral): 100 times
